Source: paper PMC11481871, “Discovery of GuaB inhibitors with efficacy against Acinetobacter baumannii infection” (mBio, 2024)
Values after ≈ are worked out from the molar mass of the structure shown. Values joined by “and” are separate entries in the source; they are usually repeats but may differ in a detail not shown here. Equal values may be shown once. Read-outs that look alike come from different tables or passages of the source.

Experiments:
[1] = tested on: Staphylococcus aureus; test: MIC, CLSI microdilution; format: cell-based; conditions: NRS 384 / USA300; Staphylococcus aureus USA300 NRS384; RPMI1640
[2] = tested on: Citrobacter werkmanii; test: MIC, CLSI microdilution; format: cell-based; conditions: 20 h; Citrobacter werkmanii (ATCC51114); M9 + casamino acids + glucose
[3] = tested on: Serratia marcescens; test: MIC, CLSI microdilution; format: cell-based; conditions: 20 h; Serratia marcescens (ATCC29021); M9 + casamino acids + glucose
[4] = tested on: Bacillus subtilis; test: MIC, CLSI microdilution; format: cell-based; conditions: RPMI1640
[5] = tested on: Mycobacterium avium; test: MIC, CLSI microdilution; format: cell-based; conditions: 336 h; Mycobacterium avium (ATCC25291); 7H9 + OADC, 14 days
[6] = tested on: Enterobacter cloacae; test: MIC, CLSI microdilution; format: cell-based; conditions: 20 h; Enterobacter cloacae (ATCC222); M9 + casamino acids + glucose
[7] = tested on: Pseudomonas aeruginosa; test: MIC, CLSI microdilution; format: cell-based; conditions: 20 h; Pseudomonas aeruginosa PAO1; M9 + casamino acids + glucose
[8] = tested on: Stenotrophomonas maltophilia; test: MIC, CLSI microdilution; format: cell-based; conditions: 20 h; Stenotrophomonas maltophilia (ATCC700267); M9 + casamino acids + glucose
[9] = tested on: A. baumannii ΔlpxA (LPS-null); test: MIC on LPS-null A. baumannii; format: cell-based; conditions: Acinetobacter baumannii, read-out: Avg. MIC
[10] = tested on: Mycobacterium smegmatis; test: MIC, CLSI microdilution; format: cell-based; conditions: Mycolicibacterium smegmatis; Mycobacterium smegmatis mc2-155; 7H9 + OADC, 48 h
[11] = tested on: Enterococcus faecalis; test: MIC, CLSI microdilution; format: cell-based; conditions: Enterococcus faecalis (ATCC47077); RPMI1640
[12] = biological target: H. sapiens IMPDH2 (Homo sapiens, UniProt P12268); test: IMPDH2 biochemical IC50
[13] = tested on: Escherichia coli; test: MIC, CLSI microdilution; format: cell-based; conditions: 20 h; Escherichia coli UPEC CFT073; M9 + casamino acids + glucose
[14] = tested on: Acinetobacter baumannii ATCC19606 GuaB mutants; test: MIC on GuaBi-resistant A. baumannii 19606 guaB mutants; format: cell-based; conditions: for MIC: Acinetobacter baumannii; for Fold shift in MIC vs parental wild-type / MIC of resistant mutant: from fluctuation assay
[15] = biological target: S. aureus GuaB (Staphylococcus aureus, UniProt P99106); test: GuaB biochemical IC50
Sequence of S. aureus GuaB (P99106 whole entry): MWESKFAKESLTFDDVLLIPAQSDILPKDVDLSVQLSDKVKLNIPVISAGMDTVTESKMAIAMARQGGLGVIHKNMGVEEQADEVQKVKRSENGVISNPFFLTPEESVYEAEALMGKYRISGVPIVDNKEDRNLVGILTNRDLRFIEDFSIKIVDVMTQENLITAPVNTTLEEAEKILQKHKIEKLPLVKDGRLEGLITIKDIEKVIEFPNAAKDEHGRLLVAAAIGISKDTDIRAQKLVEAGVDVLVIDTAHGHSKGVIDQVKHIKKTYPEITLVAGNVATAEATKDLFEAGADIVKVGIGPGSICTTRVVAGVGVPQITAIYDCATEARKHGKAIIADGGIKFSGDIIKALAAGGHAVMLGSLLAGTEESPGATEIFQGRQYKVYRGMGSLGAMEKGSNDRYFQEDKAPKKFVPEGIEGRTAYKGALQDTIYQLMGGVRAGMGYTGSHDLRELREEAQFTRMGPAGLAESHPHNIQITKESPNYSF

[16] = biological target: A. baumannii GuaB (Acinetobacter baumannii, UniProt D0CF46); test: GuaB biochemical IC50
Sequence of A. baumannii GuaB (D0CF46 entry or part of it): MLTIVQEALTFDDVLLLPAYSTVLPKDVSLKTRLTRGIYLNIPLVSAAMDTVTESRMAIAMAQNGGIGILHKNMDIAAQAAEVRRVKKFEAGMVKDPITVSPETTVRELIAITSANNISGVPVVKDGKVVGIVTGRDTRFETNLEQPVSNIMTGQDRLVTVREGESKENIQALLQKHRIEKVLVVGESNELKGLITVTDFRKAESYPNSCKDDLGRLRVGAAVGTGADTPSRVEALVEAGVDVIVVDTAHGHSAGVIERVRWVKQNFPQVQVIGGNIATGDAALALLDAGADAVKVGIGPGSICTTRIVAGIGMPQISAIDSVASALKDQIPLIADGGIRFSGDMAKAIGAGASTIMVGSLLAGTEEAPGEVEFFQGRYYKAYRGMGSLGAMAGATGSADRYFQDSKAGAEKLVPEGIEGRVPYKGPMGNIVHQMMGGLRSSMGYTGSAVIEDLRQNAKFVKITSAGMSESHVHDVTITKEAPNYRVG

[17] = biological target: T1, hERG (Homo sapiens, UniProt Q12809); test: hERG 2-point automatic patch clamp assay; format: cell-based
T1 construct: expressed in transfected cells; host or cells: HEK293
T1 sequence (Q12809 whole entry): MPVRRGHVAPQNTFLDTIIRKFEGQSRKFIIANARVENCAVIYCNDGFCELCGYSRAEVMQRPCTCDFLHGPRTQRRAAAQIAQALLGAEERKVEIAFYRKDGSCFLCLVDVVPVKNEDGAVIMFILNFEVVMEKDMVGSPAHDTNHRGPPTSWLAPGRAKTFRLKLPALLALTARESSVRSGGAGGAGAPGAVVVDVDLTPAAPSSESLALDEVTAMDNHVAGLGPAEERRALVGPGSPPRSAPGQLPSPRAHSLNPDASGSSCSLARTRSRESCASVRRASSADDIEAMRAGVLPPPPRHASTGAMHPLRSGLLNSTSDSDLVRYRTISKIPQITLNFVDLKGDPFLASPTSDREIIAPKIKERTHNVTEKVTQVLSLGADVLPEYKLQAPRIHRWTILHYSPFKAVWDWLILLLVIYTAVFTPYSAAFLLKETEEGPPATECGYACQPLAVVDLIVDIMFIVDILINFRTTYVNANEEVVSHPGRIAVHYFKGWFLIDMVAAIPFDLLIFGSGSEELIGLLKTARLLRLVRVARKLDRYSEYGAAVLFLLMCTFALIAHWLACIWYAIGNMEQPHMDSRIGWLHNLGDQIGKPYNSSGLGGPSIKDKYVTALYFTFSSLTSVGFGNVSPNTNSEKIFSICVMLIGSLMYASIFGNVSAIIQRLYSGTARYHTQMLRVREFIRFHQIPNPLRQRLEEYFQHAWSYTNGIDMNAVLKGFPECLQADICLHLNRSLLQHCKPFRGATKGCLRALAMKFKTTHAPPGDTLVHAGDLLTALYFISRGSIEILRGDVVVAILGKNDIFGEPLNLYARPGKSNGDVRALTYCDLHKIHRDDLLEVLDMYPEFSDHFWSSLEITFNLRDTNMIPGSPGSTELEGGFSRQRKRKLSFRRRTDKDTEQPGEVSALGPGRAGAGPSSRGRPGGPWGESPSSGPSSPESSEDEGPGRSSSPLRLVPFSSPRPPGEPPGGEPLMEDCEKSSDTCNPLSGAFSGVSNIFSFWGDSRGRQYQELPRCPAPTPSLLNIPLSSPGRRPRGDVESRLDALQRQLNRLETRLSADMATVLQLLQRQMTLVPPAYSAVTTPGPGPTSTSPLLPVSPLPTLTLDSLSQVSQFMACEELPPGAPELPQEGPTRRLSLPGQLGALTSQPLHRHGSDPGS
Protocol: All chemicals used in solution preparation were purchased from Sigma-Aldrich (St. Louis, MO) unless otherwise noted. Test article and positive control concentrations were prepared fresh daily by diluting stock solutions into a HEPES-buffered physiological saline solution (composition in mM): NaCl, 137; KCl, 4.0; CaCl2, 1.8; MgCl2, 1; HEPES, 10; glucose, 10; pH adjusted to 7.4 with NaOH. HEK293 cells were stably transfected with hERG cDNA and maintained in the culture medium with the appropriate selection pressure and antibiotics. All experiments were performed at room temperature. […]
In preparation for a recording session, intracellular solution was loaded into the intracellular compartments of the QPlate and cell suspension was pipetted into the extracellular compartments. After establishment of a whole-cell configuration, membrane currents were recorded using up to 48 parallel patch clamp amplifiers in the QPatch HT system. The current records were sampled at 2,000 Hz and low-pass Bessel filtered at 400 Hz. Onset and block of hERG current were measured using a stimulus voltage pattern consisting of a 500 ms prepulse to –40 mV (leakage subtraction), a 2-s activating pulse to +40 mV, followed by a 2-s test pulse to −40 mV. The pulse pattern was repeated continuously at 10-s intervals, from a holding potential of −80 mV. Peak tail current (upper panel) was measured during the −40 mV test pulse. Leakage current was calculated from the current amplitude evoked by the prepulse and subtracted from the total membrane current record. Data acquisition and analysis was performed using the QPatch Assay Software (Sophion Bioscience A/S, Denmark). Solubility of all compounds was measured using TurboSol in conjunction with the ion channel testing.

[18] = tested on: Staphylococcus epidermidis; test: MIC, CLSI microdilution; format: cell-based; conditions: Staphylococcus epidermidis RP62A (ATCC35984); RPMI1640
[19] = tested on: Enterococcus faecium; test: MIC, CLSI microdilution; format: cell-based; conditions: Enterococcus faecium (ATCC700221); RPMI1640
[20] = tested on: 41 different cellular targets; test: Secondary pharmacology panel (Cerep Eurofins); format: binding; conditions: for Hits (>50% Binding) / Hits (>75% Binding): 41 targets
[21] = tested on: Mycobacterium tuberculosis H37Rv; test: MIC, resazurin redox assay; format: cell-based; conditions: ATCC 27294 / H37Rv, 192 h, Mycobacterium tuberculosis H37Rv (ATCC27294)
[22] = tested on: Mycobacterium marinum; test: MIC, CLSI microdilution; format: cell-based; conditions: 7H9 + OADC, 48 h
[23] = tested on: Klebsiella pneumoniae; test: MIC, CLSI microdilution; format: cell-based; conditions: ATCC43816, 20 h; Klebsiella pneumoniae (ATCC 43816); M9 + casamino acids + glucose
[24] = ATCC19606, read-out: A.b.19606 Average CLSI MIC (n=3), guaB allele P25A, M9 media
[25] = ATCC19606, read-out: A.b.19606 Average CLSI MIC (n=3), guaB allele P25S, M9 media
[26] = ATCC19606, read-out: A.b.19606 Average CLSI MIC (n=3), guaB allele Y445C, M9 media
[27] = ATCC19606, read-out: A.b.19606 Average CLSI MIC (n=3), guaB allele Y445N, M9 media
[28] = ATCC19606, read-out: A.b.19606 Average CLSI MIC (n=3), guaB allele Y445S, M9 media

C[C@H](Nc1ccc2ncc(CO)cc2c1)C(=O)Nc1ccc(Cl)c(N(C)C)c1 [G2, (2S)-N-[4-chloro-3-(dimethylamino)phenyl]-2-[[3-(hydroxymethyl)-6-quinolyl]amino]propanamide]
MIC [1]: 1.6 µM (≈ 0.638 µg/mL) | MIC [2]: > 100 µM | MIC [3]: > 100 µM | MIC [4]: 13.8 µM (≈ 5.5 µg/mL) | MIC [5]: 12.5 µM | MIC [6]: > 100 µM | MIC [7]: > 100 µM | MIC [8]: 38 µM | MIC [9]: 0.07 µM (≈ 0.0279 µg/mL) | MIC [10]: 1.3 µM | MIC [11]: 0.3 µM (≈ 0.12 µg/mL) | IC50 [12]: > 50000 nM | MIC [13]: > 100 µM | MIC [14, 24]: 66.7 µM (≈ 26.6 µg/mL) | MIC [14, 25]: 66.7 µM (≈ 26.6 µg/mL) | MIC [14, 26]: 50 µM (≈ 19.9 µg/mL) | MIC [14, 27]: > 100 µM | MIC [14, 28]: > 100 µM | MIC ([14]; ATCC19606, read-out: MIC of resistant mutant, resistance allele P25A, from fluctuation assay): 50 µM | MIC ([14]; ATCC19606, read-out: MIC of resistant mutant, resistance allele P25S, from fluctuation assay): 50 µM | MIC ([14]; ATCC19606, read-out: MIC of resistant mutant, resistance allele Y445C, from fluctuation assay): 50 µM | MIC ([14]; ATCC19606, read-out: MIC of resistant mutant, resistance allele Y445S, from fluctuation assay): 100 µM | shifts in MIC conferred by on-target mutations ([14]; GuaBi-resistant mutants): ≥ 32 fold | GuaBi CLSI MIC fold change from parent strain ([14]; guaB allele P25A): 16 | GuaBi CLSI MIC fold change from parent strain ([14]; guaB allele P25S): 16 | GuaBi CLSI MIC fold change from parent strain ([14]; guaB allele Y445C): 12 | GuaBi CLSI MIC fold change from parent strain ([14]; guaB allele Y445N): >25 | GuaBi CLSI MIC fold change from parent strain ([14]; guaB allele Y445S): >25 | Fold shift in MIC vs parental wild-type ([14]; resistance allele P25A): 32, 32, 32 | Fold shift in MIC vs parental wild-type ([14]; resistance allele P25S): 32, 32, 32 and 32 | MIC of resistant mutant ([14]; resistance allele P25S): 50 µM | Fold shift in MIC vs parental wild-type ([14]; resistance allele Y445C): 32, 32, 32 and 64 | MIC of resistant mutant ([14]; resistance allele Y445C): 100 µM | Fold shift in MIC vs parental wild-type ([14]; resistance allele Y445S): 64 | IC50 [15]: 3.4 nM | IC50 [16]: 0.63 nM | hERG 1µM ([17]; 1µM): 1.70% | hERG 10µM [17]: 8.60% | hERG 50µM [17]: *48.5% | MIC [18]: 0.4 µM (≈ 0.16 µg/mL) | MIC [19]: 5.2 µM (≈ 2.07 µg/mL) | in vitro safety profile: promiscuity [20]: low promiscuity | in vitro safety profile: selectivity [20]: good selectivity | Promiscuity Risk ([20]; 10µM): 0% | Selectivity Risk ([20]; 10µM): 0% | Hits (>50% Binding) ([20]; 10µM): 0 | Hits (>75% Binding) ([20]; 10µM): 0 | Promiscuity Risk ([20]; 50µM): 0% | Selectivity Risk ([20]; 50µM): 3% | Hits (>50% Binding) ([20]; 50µM): 1 | Hits (>75% Binding) ([20]; 50µM): 0 | MIC [21]: 2.5 µM (≈ 0.997 µg/mL) | MIC [22]: 0.1 µM | MIC [23]: > 100 µM

C[C@@H](Oc1ccc2ncc3c(c2c1)CCOC3)c1cncc(-c2nc(Cl)c[nH]2)c1 [G8, (R)-9-[1-[5-(4-chloro-1H-imidazol-2-yl)-3-pyridyl]ethoxy]-2,4-dihydro-1H-pyrano[3,4 c]quinoline]
MIC [1]: 0.01 µM (≈ 0.00407 µg/mL) | MIC [2]: > 100 µM | MIC [3]: > 100 µM | MIC [4]: 0.05 µM (≈ 0.0203 µg/mL) | MIC [5]: 0.04 µM | MIC [6]: > 100 µM | MIC [7]: 50 µM | MIC [8]: 5 µM | MIC [9]: 0.007 µM (≈ 0.00285 µg/mL) | MIC [10]: 0.02 µM | MIC [11]: 0.01 µM (≈ 0.00407 µg/mL) | IC50 [12]: > 50000 nM | MIC [13]: > 100 µM | MIC [14, 24]: 0.8 µM (≈ 0.325 µg/mL) | MIC [14, 25]: 0.6 µM (≈ 0.244 µg/mL) | MIC [14, 26]: 0.2 µM (≈ 0.0814 µg/mL) | MIC [14, 27]: 1.8 µM (≈ 0.732 µg/mL) | MIC [14, 28]: 8.3 µM (≈ 3.38 µg/mL) | GuaBi CLSI MIC fold change from parent strain ([14]; guaB allele P25A): 3.3 | GuaBi CLSI MIC fold change from parent strain ([14]; guaB allele P25S): 2.5 | GuaBi CLSI MIC fold change from parent strain ([14]; guaB allele Y445C): 1 | GuaBi CLSI MIC fold change from parent strain ([14]; guaB allele Y445N): 7 | GuaBi CLSI MIC fold change from parent strain ([14]; guaB allele Y445S): 32 | IC50 [15]: 0.21 nM | IC50 [16]: 0.14 nM | hERG 10µM [17]: 6.3% | hERG 50µM [17]: 50.1% | MIC [18]: 0.004 µM (≈ 0.00163 µg/mL) | MIC [19]: 0.03 µM (≈ 0.0122 µg/mL) | in vitro safety profile: promiscuity [20]: high promiscuity risk | in vitro safety profile: selectivity [20]: off-target selectivity | Promiscuity Risk ([20]; 50µM): 51% | Selectivity Risk ([20]; 50µM): 17% | Hits (>50% Binding) ([20]; 50µM): 21 | Hits (>75% Binding) ([20]; 50µM): 7 | MIC [21]: 0.2 µM (≈ 0.0814 µg/mL) | MIC [22]: 0.03 µM | MIC [23]: > 100 µM
